Paper PMC8674378 (Journal of the American Chemical Society, 2021)
Converted amounts (≈) assume the structure as drawn.

What was measured:
[1] = molecular target: T1, ScsAHAS (Sclerotinia sclerotiorum, UniProt A7EMK2); assay: AHAS enzyme inhibition assay; assay type: biochemical, S. sclerotiorum 1980 UF-70
T1 sequence (A7EMK2 30-699): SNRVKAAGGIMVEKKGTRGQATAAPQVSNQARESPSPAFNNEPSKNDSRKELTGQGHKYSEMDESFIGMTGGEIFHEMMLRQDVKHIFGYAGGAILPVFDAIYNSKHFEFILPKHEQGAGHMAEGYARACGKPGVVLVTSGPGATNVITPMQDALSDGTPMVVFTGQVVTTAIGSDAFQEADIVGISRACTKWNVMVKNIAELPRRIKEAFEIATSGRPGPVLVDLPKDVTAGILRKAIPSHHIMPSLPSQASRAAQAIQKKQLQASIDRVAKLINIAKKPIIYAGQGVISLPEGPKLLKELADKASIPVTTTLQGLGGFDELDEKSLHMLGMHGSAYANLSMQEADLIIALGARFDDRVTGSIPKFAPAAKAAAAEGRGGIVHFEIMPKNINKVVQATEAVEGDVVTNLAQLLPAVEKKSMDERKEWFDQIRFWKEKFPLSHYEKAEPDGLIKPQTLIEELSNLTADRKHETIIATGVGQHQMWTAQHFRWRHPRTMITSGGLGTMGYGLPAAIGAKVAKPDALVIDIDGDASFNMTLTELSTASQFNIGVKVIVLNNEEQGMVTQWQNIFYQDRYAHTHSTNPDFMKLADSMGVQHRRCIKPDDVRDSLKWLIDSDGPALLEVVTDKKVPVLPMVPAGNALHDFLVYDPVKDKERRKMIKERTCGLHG

[2] = molecular target: ThAHAS^M; assay: AHAS enzyme inhibition assay; assay type: biochemical, Trichoderma afroharzianum t-22; conditions: for IC50: [E]=0.5 μM
[3] = tested on: S. cerevisiae Δilv2 strain with AHAS complementation; assay type: cell-based; conditions: under assay concentrations, even in Ile and Val supplemented growth media
[4] = tested on: Sclerotinia sclerotiorum; conditions: plant pathogenic fungus; cited from earlier work
[5] = tested on: soybeans; conditions: cited from earlier work
[6] = tested on: Rhizoctonia solani; conditions: plant pathogenic fungus; cited from earlier work
[7] = molecular target: T2, AtAHAS (Arabidopsis thaliana, UniProt P17597); assay: AHAS enzyme inhibition assay; assay type: biochemical
T2 sequence (P17597 56-670): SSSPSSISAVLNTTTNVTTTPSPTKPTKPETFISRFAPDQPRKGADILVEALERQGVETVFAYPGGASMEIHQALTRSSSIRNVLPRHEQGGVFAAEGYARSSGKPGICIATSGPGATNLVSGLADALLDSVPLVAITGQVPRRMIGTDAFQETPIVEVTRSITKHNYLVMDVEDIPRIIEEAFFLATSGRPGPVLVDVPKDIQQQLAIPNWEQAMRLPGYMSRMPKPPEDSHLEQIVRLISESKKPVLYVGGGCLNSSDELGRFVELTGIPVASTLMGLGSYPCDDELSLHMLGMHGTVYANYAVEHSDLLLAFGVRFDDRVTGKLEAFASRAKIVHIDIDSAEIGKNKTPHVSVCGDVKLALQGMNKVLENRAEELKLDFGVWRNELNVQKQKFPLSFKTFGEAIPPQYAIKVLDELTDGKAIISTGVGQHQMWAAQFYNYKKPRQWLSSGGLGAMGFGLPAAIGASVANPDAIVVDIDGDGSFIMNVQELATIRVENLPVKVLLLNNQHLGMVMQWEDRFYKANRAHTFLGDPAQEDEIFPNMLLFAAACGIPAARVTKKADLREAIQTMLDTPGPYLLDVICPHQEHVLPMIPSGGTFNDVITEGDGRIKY

[8] = molecular target: FuoAHAS (Fusarium oxysporum, UniProt X0CFW6); assay: AHAS enzyme inhibition assay; assay type: biochemical, F. oxysporum NRRL 32931
[9] = tested on: F. oxysporum; assay: Antifungal resazurin assay; assay type: cell-based
[10] = molecular target: SceAHAS (Saccharomyces cerevisiae, UniProt P07342); assay: biochemical
[11] = tested on: canola seedlings; conditions: higher (10–100 μg) doses, petri dishes; cited from earlier work
[12] = tested on: ThAHAS; assay: AHAS enzyme inhibition assay; assay type: biochemical, Trichoderma afroharzianum t-22
[13] = molecular target: (UniProt Z9DR95LUB2); assay: AHAS enzyme inhibition assay; assay type: biochemical, Trichoderma afroharzianum t-22
[14] = molecular target: T3, ThAHAS K247A (Trichoderma afroharzianum, UniProt A0ABF7PL51, K247A); assay: AHAS enzyme inhibition assay, K247A mutant; assay type: biochemical, Trichoderma afroharzianum t-22
T3 sequence (A0ABF7PL51 53-689 K247A): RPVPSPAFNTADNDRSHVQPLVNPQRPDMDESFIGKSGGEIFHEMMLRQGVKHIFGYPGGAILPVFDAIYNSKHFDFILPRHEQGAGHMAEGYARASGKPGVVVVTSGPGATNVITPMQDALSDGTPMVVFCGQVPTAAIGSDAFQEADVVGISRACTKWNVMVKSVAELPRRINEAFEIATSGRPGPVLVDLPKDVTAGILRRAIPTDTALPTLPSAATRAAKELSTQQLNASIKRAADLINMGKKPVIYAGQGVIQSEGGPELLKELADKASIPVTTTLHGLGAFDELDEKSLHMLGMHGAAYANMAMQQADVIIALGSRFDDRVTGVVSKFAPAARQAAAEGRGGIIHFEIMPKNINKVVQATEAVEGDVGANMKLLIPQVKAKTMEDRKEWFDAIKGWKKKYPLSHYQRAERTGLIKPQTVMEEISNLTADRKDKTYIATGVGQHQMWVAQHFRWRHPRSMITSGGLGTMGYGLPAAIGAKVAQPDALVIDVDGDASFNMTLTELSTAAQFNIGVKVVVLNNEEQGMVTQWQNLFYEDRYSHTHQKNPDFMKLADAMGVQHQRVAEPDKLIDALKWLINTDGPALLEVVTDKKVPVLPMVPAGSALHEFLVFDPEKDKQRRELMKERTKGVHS

[15] = molecular target: CalAHAS; conditions: cited from earlier work
[16] = tested on: S. cerevisiae Δilv2 strain expressing ThAHAS^M; assay: Yeast growth inhibition in Ile and Val dropout medium; assay type: cell-based; conditions: Δilv2 complemented with ThAHAS^M
[17] = tested on: S. cerevisiae BJ5464-NpgA; assay: as above; assay type: cell-based; conditions: parent yeast strain
[18] = tested on: S. cerevisiae Δilv2 strain expressing ThAHAS; assay: as above; assay type: cell-based; conditions: Δilv2 complemented with ThAHAS
[19] = tested on: S. cerevisiae Δilv2 strain expressing AtAHAS; assay: as above; assay type: cell-based; conditions: Δilv2 complemented with AtAHAS

Sequence of SceAHAS (P07342 91-687): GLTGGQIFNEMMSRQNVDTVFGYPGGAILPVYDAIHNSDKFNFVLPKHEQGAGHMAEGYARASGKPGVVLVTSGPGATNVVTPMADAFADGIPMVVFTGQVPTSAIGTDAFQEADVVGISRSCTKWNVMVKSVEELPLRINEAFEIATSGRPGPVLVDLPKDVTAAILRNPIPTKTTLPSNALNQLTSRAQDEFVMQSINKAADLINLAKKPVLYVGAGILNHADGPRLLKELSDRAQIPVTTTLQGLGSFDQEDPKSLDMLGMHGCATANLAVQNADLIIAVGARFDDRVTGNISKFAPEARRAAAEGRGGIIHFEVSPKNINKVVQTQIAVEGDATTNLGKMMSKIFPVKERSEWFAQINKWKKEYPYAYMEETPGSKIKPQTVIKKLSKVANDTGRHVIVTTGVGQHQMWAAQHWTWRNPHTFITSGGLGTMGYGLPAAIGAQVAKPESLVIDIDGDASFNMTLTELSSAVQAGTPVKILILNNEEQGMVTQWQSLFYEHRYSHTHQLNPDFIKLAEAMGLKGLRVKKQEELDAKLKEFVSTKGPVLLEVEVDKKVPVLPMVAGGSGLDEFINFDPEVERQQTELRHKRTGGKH

## CCCC=CC=CC(=O)C1=C(O)C(CC(O)(C(=O)O)C(C)C)N(C)C1=O (stereo not shown) [HA, harzianic acid]
[1]
  Ki: 11 µM
[2]
  Ki: 3.39 µM
  IC50: 20 µM
[3]
  toxicity towards yeast: general toxicity
[4]
  antifungal activity: antifungal activity
[5]; field conditions
  increase of production of soybean pods and seeds: 5–10%
[5]; soybeans, greenhouse conditions
  improvement of stem lengths: > 40%
[6]
  antifungal activity: antifungal activity
[7]
  inhibition of plant AtAHAS: No inhibition
[8]
  Ki: 14 µM
[9]; Fusarium oxysporum, 48 h, read-out: IC50 of growth inhibition
  IC50: ~26 µg/mL (≈ 71.1 µM)
[9]; grown in the presence of BCAAs (Leu, Ile and Val), RPMI 1640, 48h
  inhibition of growth: inhibition of growth was only observed at very high concentrations
[10]
  Ki: ~83 µM
[11]
  effect on growth of canola seedlings: growth inhibition
[12]; filamentous fungal AHAS over yeast SceAHAS
  preferential binding, fold lower in Ki: > 10 fold
[13]
  Ki: 6.65 µM
[14]
  IC50: 162 µM
[14]; K247A versus ThAHAS
  fold increase in IC50 by K247A mutation: 4 fold

## COc1cc(OC)n2nc(S(=O)(=O)Nc3c(Cl)ccc(C)c3Cl)nc2n1 [MT, metosulam]
[15]
  Ki: low nanomolar

## COC(=O)c1ccccc1S(=O)(=O)NC(=O)Nc1nc(C)cc(C)n1 [SM, sulfometuron methyl, reference compound]
[1]; in vitro assay conditions
  sensitivity of ScsAHAS: completely insensitive
[16]
  growth inhibition: minimal sensitivity
[2]; even at elevated concentration (100 μM)
  inhibition of ThAHAS^M: no inhibition
[17]
  growth inhibition: potently inhibited
[8]; in vitro assay conditions
  sensitivity of FuoAHAS: completely insensitive
[18]
  growth inhibition: potently inhibited
[19]
  growth inhibition: potently inhibited
[12]
  IC50: ~350 nM

## CCCC=CC=CC(=O)C1=C(O)C(CC(O)(C(=O)O)C(C)C)NC1=O (stereo not shown) [compound 5, demethylharzianic acid]
[2]
  IC50: 37 µM
